{"source": "patent US8753820B2", "about": "“Protein biomarkers for soft tissue disease diagnosis and as therapeutic targets for oral care intervention” (Colgate-Palmolive Company, priority 2009, dated 2014)", "key": {"[1]": {"tested_on": "MMP-9 production of U937 cells", "assay": "MMP-9 ELISA of conditioned media from TNFα-stimulated U937 monocyte cells", "assay_type": "cell-based, Human", "settings": "for MMP-9 production, Average: U937 cells, 24 hours, ELISA of conditioned media", "protocol": "U937 cells and RPMI 1640 culture medium were obtained from ATCC. Human MMP-9 ELISA Kit (QUANTIKINE) was obtained from R&D Systems. Fetal Bovine Serum (FBS) was obtained from VWR, and the penicillin-streptomycin solution and Tumor Necrosis Factor α (TNFα) were obtained from Sigma.\nHuman leukemia U937 monocyte lymphoma cells were cultured in RPMI 1640 medium supplemented with 10% FBS and 1% Penicillin-Streptomycin solution. Cells were incubated at 37° C. in a humidified atmosphere containing 5% CO2 and 95% air. Before treatment, cells were transferred into RPMI containing 1% FBS for overnight. Cells were plated on a 48 well plate. Cell culture medium included either TNFα (250 ng/mL), Triclosan (1 ppm), or both agents together or no agent (control). Cells were incubated after treatment for 24 hours. Conditioned media were collected and store at −80° C. until analysis. Samples of conditioned media were subjected to enzyme-linked immunosorbent assays (ELISA) for MMP-9, according to commercial ELISA protocol (FIG. 1)."}, "[2]": {"tested_on": "MMP-13 expression in UMR 106-01 cells", "assay": "MMP-13 expression by real time quantitative RT-PCR in PTH stimulated UMR 106-01 cells", "assay_type": "cell-based, Rat", "settings": "4 hours; for MMP-13 expression in PTH stimulated UMR cells: PTH 10^-8 M", "protocol": "Parathyroid hormone (rat PTH 1-34) was purchased from Sigma. UMR 106-01 cells were cultured in Eagle's minimal essential medium (EMEM) supplemented with 25 mM Hepes pH 7.4, 1% nonessential amino acids, 100 units/ml penicillin, 100 μg/ml streptomycin. 5% fetal bovine serum. Real Time Quantitative RT-PCR was conducted according to the following method: UMR 106-01 cells were seeded in 12-well plates and cultured for 2-3 days in cell culture media. When cells were confluent, cell culture media was exchanged with 1% fetal bovine serum for overnight for cell starvation. Cells were pre-incubated with dentifrice for 15 min and then incubated with PTH (10^−8 M) for 4 hours.\nTotal RNA was isolated from UMR 106-01 cells stimulated with or without PTH with TRIzol reagent. Total RNA (0.1 μg) was reverse-transcribed to cDNA using the Invitrogen SUPERSCRIPT kit according to the manufacturer's instructions. All cDNAs were amplified by adding 2.5 μl of cDNA to the PCR mixture (22.5 μl) containing each primer (0.2 μM) and 12.5 μl of the Platinum SYBR Green qPCR SuperMix UDG (Invitrogen). The reactions were preincubated at 50° C. for 2 minutes to decontaminate dU-containing DNA by UDG, then at 95° C. for 2 minutes to inactivate UDG and activate Taq. The PCR program continued 49 cycles of denaturation at 95° C. for 15 seconds, annealing and elongation of the primers at 60° C. for 30 seconds. Relative quantification of gene expression was determined by using the 2-delta delta CT method where fold changes in gene expression are relative to control samples. All samples were normalized to β-actin.\nAll results were expressed as means±standard error (S.E.) of triplicate measurements with all experiments being repeated at least three times. Statistical analyses were carried out using the Student's t test."}, "[3]": {"settings": "PEG 600 present in a weight ratio of 25 triclosan:1 PEG 600, versus absence of polyethylene glycol; cited from earlier work"}}}
{"compound": "Oc1cc(Cl)ccc1Oc1ccc(Cl)cc1Cl", "note": "[Triclosan, 2,4,4′-trichloro-2′-hydroxydiphenyl ether]", "values": [{"measurement": "MMP-9 level in TNFα stimulated U937 cells", "setting": "[1]; Triclosan at 1 ppm", "value": "significantly reduced"}, {"measurement": "MMP-9 production, Average", "setting": "[1]; TNFα 250 ng/mL + Triclosan 1 ppm", "value": 0.155, "unit": "ng/mL"}, {"measurement": "MMP-13 expression in PTH stimulated UMR cells", "setting": "[2]; 1 ppm", "value": "significantly reduced"}, {"measurement": "MMP-13 expression in PTH stimulated UMR cells", "setting": "[2]; 4 ppm", "value": "significantly reduced"}, {"measurement": "MMP-13 expression in PTH stimulated UMR cells", "setting": "[2]; 10 ppm", "value": "significantly reduced"}, {"measurement": "factor by which antibacterial activity of triclosan is reduced", "setting": "[3]", "value": "10-20"}]}
{"compound": "PTH: Parathyroid hormone (rat PTH 1-34) purchased from Sigma, used to stimulate MMP-13 expression (AVSEIQLMHNLGKHLASVERMQWLRKKLQDVHNF; Parathyroid hormone; UniProt P04089 32-65, looked up, fragment)", "values": [{"measurement": "MMP-13 expression in UMR cells", "setting": "[2]; stimulated with PTH 10^-8 M", "value": "increase"}]}
{"compound": "TNFα", "values": [{"measurement": "MMP-9 production, Average", "setting": "[1]; TNFα 250 ng/mL alone", "value": 0.275, "unit": "ng/mL"}, {"measurement": "MMP-9 level in U937 cells", "setting": "[1]; stimulated with TNFα", "value": "increase"}]}
